One block for each compound: values may come before it.
Tests used:
[1] = UV–vis variable-pH titration (pKa); format: physicochemical; conditions: aqueous solution (10 mM NaOH, 100 mM NaCl) titrated with HCl, 100 μM
Protocol: The pKa value for 2 was determined by UV–vis variable-pH titrations as previously reported. To establish the pKa value, a solution (10 mM NaOH, pH 12, 100 mM NaCl) of 2 (100 μM) was titrated with small amounts of HCl. At least 30 spectra were recorded in the range of pH 2–10. Similarly, a solution containing CuCl2 and 2 (50 μM) in a metal to ligand ratio of 1:2 was titrated with small additions of HCl and at least 30 spectra were recorded over the range pH 2–7. The acidity and stability constants were calculated by using the HypSpec program (Protonic Software, UK)[56]. Speciation diagrams were modelled in the HySS2009 program (Protonic Software)[57].

5 × FAD mice = assay: Tolerability and body weight during 30-day treatment; format: in vivo, mouse
Text: (§1) The amyloidogenic characteristics of 5 × FAD mice have been described previously. In brief, 5 × FAD mice express the Swedish/London/Florida mutations of the human amyloid precursor protein (hAPP) and the M146L/L286V mutations of the human presenilin-1 (PSEN1). They develop the early and robust pathology of AD with the cognitive and behavioural impairments. The 5 × FAD mice have been widely used to test the possible efficacy of a compound targeted for AD[25][29]. We maintained the mice on a C57BL/6 × SJL hybrid background. All animal experiments were performed in accordance with the guidelines of the Asan Institute for Life Science for Laboratory Animal Care and Use (Seoul, Korea), where the animals had free access to water and food, and were housed on 12 h light/12 h dark cycle.
(§2) Chemicals used were freshly prepared shortly before administration to the animals. We treated 5 × FAD mice with 1 (1 mg kg^−1 of body weight) or the vehicle (1% v/v DMSO in 20 mM HEPES, pH 7.4, 150 mM NaCl) starting at 3 months of age, which is the same method used in our previous studies. 1 was daily injected into the lower abdomen of the 5 × FAD mice for 30 days.

5 × FAD AD mouse model [2] = assay: Cerebral amyloid pathology (ELISA, 4G8 immunohistochemistry, Congo red); format: in vivo; conditions: 1 mg kg^−1 daily i.p., 30 days
Text: as §1
Chemicals used were freshly prepared shortly before administration to the animals. […]
We measured the levels of various types of Aβ in the brain as described previously. The protein fractions were serially prepared from the left hemispheres in PBS (pH 7.4), in 2% SDS and in 70% FA, and then subjected to the human Aβ40 and Aβ42 ELISA quantification according to the manufacturer's methods (Invitrogen, Carlsbad, CA, USA). The aggregated (Invitorgen) and oligomeric Aβ (82E1-specific; IBL International, Hamburg, Germany) ELISA quantifications were also performed using PBS fractions. The cerebral levels of Aβ40 and Aβ42 were represented as moles per gram of wet brain tissue, whereas the aggregated or oligomeric Aβ amounts were expressed as grams per gram of wet brain tissue.
12-μm sagittal sections of the brain were prepared from the right hemispheres on a cryostat (HM550; Microm, Walldorf, Germany), and mounted onto 1% poly-L-lysine-coated glass slides. […] The loads of amyloid deposits in the brain were expressed as the per cent area of 4G8-immunoreactive deposits or the number of congophilic plaques per mm^2 of a cortical region of interest.

5 × FAD AD mouse model [3] = assay: Morris water maze test; format: in vivo; conditions: 1 mg kg^−1 daily i.p., 30 days
Protocol: as §2
Mice were subjected to the Morris water maze test to assess their performance of spatial learning and memory. The water maze was a circular plastic pool (120 cm diameter) and filled with murky water (21.0±1.0 °C). A cylindrical escape platform (15 cm diameter) stood 0.5 cm under the water surface. Three hours after the 30th compound treatment, the mice were allowed the first training to swim and find the hidden escape platform in the water with three repeats per training. Thereafter, they daily tried the task on the next 4 consecutive days. Three hours after the final escape test, the platform was removed, and the mice exercised a probe trial for 60 s. The animal performance was traced with SMART Video Tracking System (Harvard Apparatus, Holliston, MA, USA).

[4] = 1 mg kg^−1 daily, intraperitoneal, 30 days, 5 × FAD mice

pKa [1]: 5
SMILES: COc1cc(NCc2ccccn2)cc(OC)c1 [compound 2, 3,5-dimethoxy-N-(pyridin-2-ylmethyl)aniline]

SMILES: Nc1ccc(NCc2ccccn2)cc1 [compound 1, N^1-(pyridin-2-ylmethyl)benzene-1,4-diamine]
Body weight versus vehicle-treated mice (5 × FAD mice; [4]): no difference in body weight
Tolerability of repeated treatments (5 × FAD mice; [4]): tolerated the repeated treatments
Body weight, female, day 1 (5 × FAD mice; 5×FAD mice, 1 mg/kg/day, mean): 20.8 gram
Body weight, female, day 3 (5 × FAD mice; 5×FAD mice, 1 mg/kg/day, mean): 20.8 gram
Body weight, female, day 6 (5 × FAD mice; 5×FAD mice, 1 mg/kg/day, mean): 20.8 gram
Body weight, female, day 9 (5 × FAD mice; 5×FAD mice, 1 mg/kg/day, mean): 21.0 gram
Body weight, female, day 12 (5 × FAD mice; 5×FAD mice, 1 mg/kg/day, mean): 21.2 gram
Body weight, female, day 15 (5 × FAD mice; 5×FAD mice, 1 mg/kg/day, mean): 20.8 gram
Body weight, female, day 18 (5 × FAD mice; 5×FAD mice, 1 mg/kg/day, mean): 21.2 gram
Body weight, female, day 21 (5 × FAD mice; 5×FAD mice, 1 mg/kg/day, mean): 21.4 gram
Body weight, female, day 24 (5 × FAD mice; 5×FAD mice, 1 mg/kg/day, mean): 21.4 gram
Body weight, female, day 27 (5 × FAD mice; 5×FAD mice, 1 mg/kg/day, mean): 21.8 gram
Body weight, female, day 30 (5 × FAD mice; 5×FAD mice, 1 mg/kg/day, mean): 21.6 gram
Body weight, male, day 1 (5 × FAD mice; 5×FAD mice, 1 mg/kg/day, mean): 28.0 gram
Body weight, male, day 3 (5 × FAD mice; 5×FAD mice, 1 mg/kg/day, mean): 27.6 gram
Body weight, male, day 6 (5 × FAD mice; 5×FAD mice, 1 mg/kg/day, mean): 27.6 gram
Body weight, male, day 9 (5 × FAD mice; 5×FAD mice, 1 mg/kg/day, mean): 27.8 gram
Body weight, male, day 12 (5 × FAD mice; 5×FAD mice, 1 mg/kg/day, mean): 27.4 gram
Body weight, male, day 15 (5 × FAD mice; 5×FAD mice, 1 mg/kg/day, mean): 27.8 gram
Body weight, male, day 18 (5 × FAD mice; 5×FAD mice, 1 mg/kg/day, mean): 28.0 gram
Body weight, male, day 21 (5 × FAD mice; 5×FAD mice, 1 mg/kg/day, mean): 27.8 gram
Body weight, male, day 24 (5 × FAD mice; 5×FAD mice, 1 mg/kg/day, mean): 27.6 gram
Body weight, male, day 27 (5 × FAD mice; 5×FAD mice, 1 mg/kg/day, mean): 28.0 gram
Body weight, male, day 30 (5 × FAD mice; 5×FAD mice, 1 mg/kg/day, mean): 27.0 gram
Loads of Aβ deposits in the brain (5 × FAD AD mouse model [2]; 4G8-immunoreactive or congophilic plaques): reduced the loads of Aβ deposits
Amounts of Aβ oligomers and aggregates (5 × FAD AD mouse model [2]; ELISA, PBS fractions): decreased
Total Aβ level in the brain versus vehicle (5 × FAD AD mouse model [2]; PBS-, SDS- and FA-soluble Aβ40/Aβ42, ELISA): significantly lower
Finding the hidden escape platform (trial trainings) (5 × FAD AD mouse model [3]): faster than the vehicle-treated 5 × FAD mice
Probe trials, long-term spatial memory (5 × FAD AD mouse model [3]): significant improvement of the long-term spatial memory

Source: article PMC5065625, “Structure-mechanism-based engineering of chemical regulators targeting distinct pathological factors in Alzheimer's disease” (Nature Communications, 2016)
